# ± gives the standard deviation.
# What was measured:
# [1] = chemical recovery into PDMS from spiked human plasma; higher = better extraction; conditions: pooled human plasma, extraction method: PES with PDMS
# [2] = chemical recovery from spiked human plasma; higher = better extraction; conditions: pooled human plasma
# [3] = chemical recovery by SPE of plasma after PDMS sampling; higher = better extraction; conditions: pooled human plasma, extraction method: HLB SPE of plasma after PES
# [4] = extraction method: solvent precipitation (ACN + hexane)
# [5] = extraction method: SPE only (HLB 96-well)
# [6] = extraction method: SPE only (HLB 96-well), PES comparison experiment
# [7] = extraction method: PES+SPE (3 d PDMS equilibration then HLB SPE)
# 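Throughout, for chemical recovery by SPE of plasma after PDMS sampling: over 400 spiked chemicals quantified by LC-HRMS or GC-HRMS via internal standard calibration, recovery relative to spike mix added to unspiked plasma extract to correct matrix effects.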
SMILES,chemical recovery into PDMS ([1]; equilibration time (d): 1) [%],chemical recovery into PDMS ([1]; equilibration time (d): 3) [%],chemical recovery into PDMS ([1]; equilibration time (d): 6) [%],"chemical recovery [2, 4] [%]",chemical recovery by SPE of plasma ([3]; equilibration time (d): 1) [%],chemical recovery by SPE of plasma ([3]; equilibration time (d): 3) [%],chemical recovery by SPE of plasma ([3]; equilibration time (d): 6) [%],"chemical recovery [2, 5] [%]","chemical recovery [2, 6] [%]","chemical recovery [2, 7] [%]"
CCOC(=O)NCCOc1ccc(Oc2ccccc2)cc1 [Fenoxycarb],52.1 ± 2.8,54.3 ± 4.4,52.2 ± 7.9,72 ± 7.2,,,,,,
CO/N=C(/C1=NOCCO1)c1ccccc1Oc1ncnc(Oc2ccccc2Cl)c1F [Fluoxastrobin],45.4 ± 3.9,50.3 ± 4.7,47.2 ± 5.7,,0.73 ± 1.3,0.629 ± 1.1,0.277 ± 0.48,,,
ClC1=C(Cl)C2(Cl)C3C4OC4C(Cl)C3C1(Cl)C2(Cl)Cl (configuration not stated) [Heptachlorepoxide],,99.4 ± 13,,,1.72 ± 1.8,2.34 ± 0.82,1.89 ± 0.21,,,
CC(=O)C1(C)CC2=C(CCCC2(C)C)CC1C (configuration not stated) [ISO E Super],33.8 ± 6.6,34.9 ± 2.3,42.6 ± 7,,,,,2.41 ± 2.6,,
"c1ccc2c(c1)=c1ccc3c4c(ccc=2c14)=c1ccccc1=3 [Indeno(1,2,3-cd)fluoranthene]",70.5 ± 4,79.7 ± 9.8,77.5 ± 5.2,,,,0.409 ± 0.71,,,
COC(=O)N(C(=O)N1CO[C@@]2(C(=O)OC)Cc3cc(Cl)ccc3C2=N1)c1ccc(OC(F)(F)F)cc1 [Indoxacarb],52.6 ± 5.8,52 ± 9.1,53.2 ± 3.8,,,,,61.3 ± 15,38.3 ± 8.6,
CC1=CC(=O)CC(C)(C)C1 [Isophorone],4.8 ± 8.3,,,,,,,0.623 ± 0.28,,
CC(=O)O[C@]1(C(C)=O)CC[C@H]2[C@@H]3C[C@H](C)C4=CC(=O)CC[C@]4(C)[C@H]3CC[C@@]21C [Medroxyprogesteroneacetate],41.5 ± 4.3,46.8 ± 1.9,43.4 ± 1.5,,,,,,44.5 ± 8.6,
CN(C)C(=N)NC(=N)N [Metformin],,,0.002 ± 0.0035,83.3 ± 12,,,,2.12 ± 0.71,,1.5 ± 0.32
C[C@@H]1C[C@H]2[C@@H]3CCC4=CC(=O)C=C[C@]4(C)[C@@]3(Cl)[C@@H](O)C[C@]2(C)[C@@]1(OC(=O)c1ccco1)C(=O)CCl [Mometasone fuorate],22.4 ± 3,29.4 ± 3.4,32.6 ± 2.6,,,,,,32.8 ± 7.8,
"CCCCCCCCCCN(C)C [N,N-Dimethyldecylamine]",,,0.000993 ± 0.0017,,,,,,39.4 ± 7.1,
CCCCC(CC)COC(=O)C(C#N)=C(c1ccccc1)c1ccccc1 (configuration not stated) [Octocrylene],62.5 ± 6.4,65.5 ± 8,65.4 ± 1.9,59.8 ± 6.2,,,,2.21 ± 0.76,,73.7 ± 6
CC(C)Oc1cc(-n2nc(C(C)(C)C)oc2=O)c(Cl)cc1Cl [Oxadiazone],39.1 ± 3.5,40.4 ± 3.1,37.8 ± 2.7,,,,,43.6 ± 4.8,34.7 ± 5.2,
O=C(O)C(F)(F)C(F)(F)C(F)(F)C(F)(F)C(F)(F)C(F)(F)F [Perfluoroheptanoic acid],0.0266 ± 0.023,0.00647 ± 0.017,0.0383 ± 0.0028,85.3 ± 16,,,,27.1 ± 4.2,39.8 ± 8.7,34.1 ± 2.9
O=C(Nc1ccc(F)cc1)c1cccc(Oc2cccc(C(F)(F)F)c2)n1 [Picolinafen],50.6 ± 4.7,54.1 ± 5.5,50.4 ± 4.1,69.8 ± 6,,,,49.3 ± 14,28.9 ± 6,
CC(=O)[C@H]1CC[C@H]2[C@@H]3CCC4=CC(=O)CC[C@]4(C)[C@H]3CC[C@]12C [Progesterone],47.3 ± 3.5,50.6 ± 4.3,48.2 ± 0.51,,,,,,45.7 ± 9.4,
COC(=O)N(OC)c1ccccc1COc1ccn(-c2ccc(Cl)cc2)n1 [Pyraclostrobin],46.4 ± 5.7,47.9 ± 3.8,46.6 ± 3.3,,,,,48 ± 6.1,36.9 ± 5,71.5 ± 8.6

SMILES,chemical recovery into PDMS ([1]; equilibration time (d): 1) [%],chemical recovery into PDMS ([1]; equilibration time (d): 3) [%],chemical recovery into PDMS ([1]; equilibration time (d): 6) [%],"chemical recovery [2, 4] [%]",chemical recovery by SPE of plasma ([3]; equilibration time (d): 1) [%],chemical recovery by SPE of plasma ([3]; equilibration time (d): 3) [%],chemical recovery by SPE of plasma ([3]; equilibration time (d): 6) [%],"chemical recovery [2, 5] [%]","chemical recovery [2, 6] [%]","chemical recovery [2, 7] [%]"
CCOC(=O)c1cn2nc(OP(=S)(OCC)OCC)cc2nc1C [Pyrazophos],39.1 ± 4.4,40.5 ± 2.3,40.1 ± 2.1,,,,,43 ± 3.4,40.2 ± 7.4,55.7 ± 7.8
CC(C)(C)c1ccc(CSc2cnn(C(C)(C)C)c(=O)c2Cl)cc1 [Pyridaben],50.4 ± 7.5,49.7 ± 3.6,49.4 ± 2.4,,,,,7.91 ± 1.1,,
CC(COc1ccc(Oc2ccccc2)cc1)Oc1ccccn1 (configuration not stated) [Pyriproxyfen],48.2 ± 4.8,50.9 ± 6.1,49.3 ± 2.8,,,,,39.7 ± 12,23 ± 4.6,
C=CC[C@@H]1/C=C(\C)C[C@H](C)C[C@H](OC)[C@H]2O[C@@](O)(C(=O)C(=O)N3CCCC[C@H]3C(=O)O[C@H](/C(C)=C/[C@@H]3CC[C@@H](O)[C@H](OC)C3)[C@H](C)[C@@H](O)CC1=O)[C@H](C)C[C@@H]2OC [Tacrolimus],23.3 ± 2.5,27.6 ± 2.7,30.5 ± 2.2,,5.46 ± 2.7,1.87 ± 3.2,,,,
CC1(C)[C@H](C=C(Cl)Cl)[C@H]1C(=O)OCc1c(F)c(F)cc(F)c1F [Transfluthrin],79.7 ± 14,113 ± 37,92.7 ± 12,31.9 ± 2.4,,,,0.85 ± 0.086,13.8 ± 3.7,
CC(C)COP(=O)(OCC(C)C)OCC(C)C [Tri-isobutylphosphate],37.6 ± 1.3,39.9 ± 4.4,39.9 ± 2.7,,,,,,31.3 ± 5.5,
CC(C)(C)C(O)C(Oc1ccc(Cl)cc1)n1cncn1 (configuration not stated) [Triadimenol],39.4 ± 1.5,43.5 ± 3.8,43.6 ± 0.11,68.9 ± 3.2,,,,,47.4 ± 7.7,
CC(C)N(C(=O)SCC(Cl)=C(Cl)Cl)C(C)C [Triallate],29 ± 1.7,32.2 ± 4,29.8 ± 1.9,76.8 ± 11,,,,16.3 ± 5,22.8 ± 6.1,
COc1cc(Cl)ccc1Oc1ccc(Cl)cc1Cl [Triclosan-methyl],,,84.6 ± 26,22.2 ± 1.1,,,,0.483 ± 0.13,12.2 ± 2.8,
Cc1ccc(OP(=O)(Oc2ccc(C)cc2)Oc2ccc(C)cc2)cc1 [Tricresylphosphate],54.2 ± 6.3,56.1 ± 5.2,54 ± 3.2,,,,,44.8 ± 12,25.4 ± 4.9,
CO/N=C(/C(=O)OC)c1ccccc1CO/N=C(\C)c1cccc(C(F)(F)F)c1 [Trifloxystrobin],47.2 ± 4.1,47.8 ± 5.8,47.3 ± 3.1,,,,,48 ± 6.8,45.4 ± 8.7,
O=P(Oc1ccccc1)(Oc1ccccc1)Oc1ccccc1 [Triphenylphosphate],41.3 ± 4.4,43.5 ± 3.7,42 ± 2.9,88.1 ± 6.6,,,,57.9 ± 4.8,41.3 ± 5.6,
Cl[C@H]1[C@H](Cl)[C@@H](Cl)[C@H](Cl)[C@H](Cl)[C@H]1Cl [alpha-HCH],56.7 ± 14,69.9 ± 18,66.1 ± 14,,,,,,25.5 ± 5.6,
O=S1OC[C@@H]2[C@H](CO1)[C@]1(Cl)C(Cl)=C(Cl)[C@]2(Cl)C1(Cl)Cl (stereo partly drawn) [beta-Endosulfan],60.6 ± 7.8,77.8 ± 18,80.6 ± 18,17.7 ± 8.9,,,,3.92 ± 1.1,15.9 ± 3.6,
Cl[C@H]1[C@H](Cl)[C@@H](Cl)[C@H](Cl)[C@@H](Cl)[C@@H]1Cl [beta-HCH],,80.5 ± 10,77.1 ± 5.9,33.3 ± 5.6,,,,,26.6 ± 2.1,192 ± 11
Cl[C@H]1[C@H](Cl)[C@@H](Cl)[C@@H](Cl)[C@H](Cl)[C@H]1Cl [gamma-HCH],,57.4 ± 18,58.6 ± 18,26.2 ± 8.1,,,,,9.76 ± 0.99,
